{
  "source": "patent US7659306B2",
  "about": "“Method of increasing gastric emptying” (The Board of Regents of the University of Texas System, priority 2004, dated 2010)",
  "key": {"[1]": {"target": "T1, dopamine 3 receptor (D3R) (Rattus norvegicus, UniProt P19020)", "T1 sequence (P19020 whole entry)": "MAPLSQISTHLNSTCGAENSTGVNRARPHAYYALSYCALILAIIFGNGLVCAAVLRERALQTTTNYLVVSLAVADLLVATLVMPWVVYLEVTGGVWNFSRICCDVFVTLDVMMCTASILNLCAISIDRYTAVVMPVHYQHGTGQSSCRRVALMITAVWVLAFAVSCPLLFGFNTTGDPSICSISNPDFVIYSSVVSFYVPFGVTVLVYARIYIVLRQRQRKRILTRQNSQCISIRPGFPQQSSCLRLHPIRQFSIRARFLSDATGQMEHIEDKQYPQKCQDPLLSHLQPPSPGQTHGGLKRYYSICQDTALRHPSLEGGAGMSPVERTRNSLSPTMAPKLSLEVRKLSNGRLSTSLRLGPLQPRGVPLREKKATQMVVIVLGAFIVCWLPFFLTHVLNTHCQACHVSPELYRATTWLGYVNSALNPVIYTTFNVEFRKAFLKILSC", "assay": "Gastric emptying test (phenol red method) after i.p. D3R agonist", "assay_type": "in vivo", "design": "from tissue; host or cells: whole animal, adult male Sprague-Dawley rat (gastrointestinal tract)", "conditions": "adult male Sprague-Dawley rats, 1 mg/kg i.p., 20 minutes after phenol red methylcellulose meal, mean±SEM, vehicle 78±4.86%, hydrochloride", "method": "Values were expressed as mean±SEM.\nAdult male Sprague-Dawley rats (weighing 200-250 g) were deprived of food 18 hr prior to experiments but allowed free access to water. The animals were intraperitoneally injected with a dopamine 3 receptor agonist, PD 128907 hydrochloride, at 1 mg/kg or with physiological saline (control) before administration by oral tube of 1.5 ml of pre-warmed (35° C.) 0.05% phenol red solution."}, "[2]": {"target": "T1, dopamine 3 receptor (D3R)", "assay": "Electric field stimulation induced relaxation of pyloric strips in an organ bath", "design": "from tissue; host or cells: whole animal, adult male Sprague-Dawley rat (gastrointestinal tract)", "conditions": "pyloric strips of adult male Sprague-Dawley rats, agonist 0.1-10 µM, dose dependent, hydrochloride", "method": "The pyloric function was assessed by measuring the relaxation of pyloric strips in an organ bath in response to electric field stimulation in the presence of D3R agonist ranging from 0.1-10 µM (1 µM vs control, P<0.05; 10 μM vs control, P=0.001).\nPyloric function was assessed in an organ bath by measuring the relaxation of pyloric strips of adult male Sprague-Dawley rats in the presence of the dopamine 3 receptor agonist, PD 128907 hydrochloride."}, "[3]": {"target": "T1, dopamine 3 receptor (D3R)", "conditions": "adult male Sprague-Dawley rats, dopamine 1 mg/kg i.p. plus nafadotride 0.1 or 1 mg/kg i.p., 20 minutes after meal", "protocol": "Gastric emptying was assessed in adult male Sprague-Dawley rats by the phenol red method. […] Control rats received vehicle (PBS).\nA solution of 50 mg phenol red in 100 ml aqueous methylcellulose (1.5%) was used as a test meal. Methylcellulose (1.5 g, 400 centipoises) was dispersed in 100 ml of hot water (80° C.) under continuous shaking. The solution was allowed to cool to 35° C., and then phenol red was added. Intensity and duration (5 hr) of agitation were kept constant to obtain solutions of reproducible viscosity.\nConscious rats were fed the 0.05% phenol red methylcellulose solution and euthanized after 20 minutes. The stomach was clamped at the pylorus and cardiac ends before removal. The stomach and its contents were homogenized with 100 ml of 0.1N NaOH. A baseline control for each phenol red solution preparation was used by mixing 1.5 ml with 100 ml of 0.1N NaOH. The mixture was then kept for 1 hr at room temperature: 5 ml of the supernatant was added to 0.5 ml of trichloroacetic acid solution (20% w/v) to precipitate the proteins. […] The solutions were then read with a spectrophotometer at a wavelength of 560 nm.\nGastric emptying (G.E.) for each rat was calculated according to the following formula: (1−Absorbance of test sample)/(Absorbance of baseline control)×100%. Values were expressed as mean±SEM. […]"}},
  "note": "Entries after “also recorded” stand apart in the source; their conditions may differ. Where two headings read alike, the source gives them in different places.",
  "data": [
    {"smiles": "CCCN1CCO[C@@H]2c3cc(O)ccc3OC[C@H]21.Cl", "note": "[PD 128907 hydrochloride]", "values": [
      {"measurement": "gastric emptying", "setting": "[1]", "value": 44, "unit": "%"},
      {"measurement": "gastric emptying", "setting": "[1]; listed as D3R agonist", "value": "44±8.26", "unit": "%"},
      {"measurement": "electric field stimulation induced relaxation of pyloric strips", "setting": "[2]", "value": "reduced electric field stimulation induced relaxation of pyloric strips; also recorded: significant reduction in electric field stimulation induced relaxation of pyloric strips"}
    ]},
    {"smiles": "CCCCN1CCCC1CNC(=O)c1cc(C#N)c2ccccc2c1OC", "note": "(centres unmarked) [nafadotride]", "values": [
      {"measurement": "reversal of the effect of dopamine on gastric emptying", "setting": "[3]", "value": "partial reversal of the effect of dopamine on gastric emptying"},
      {"measurement": "reversal of the effect of dopamine on gastric emptying", "setting": "[3]; listed as Nafadotride", "value": "partially reverse the effect of dopamine"}
    ]}
  ]
}
